Results published in publication PMC11595589, “A Pharmacokinetic and Bioavailability Study of Ecklonia cava Phlorotannins Following Intravenous and Oral Administration in Sprague–Dawley Rats” (Marine Drugs, 2024).

Assay: Relative polarity by RP-HPLC of EK-ECP
Assay type: physicochemical
Conditions: RP-HPLC chromatogram of EK-ECP
Protocol: A further detailed analysis of the phlorotannins present in EK-ECP was performed to identify and quantify the major components (individual phlorotannins) by reversed phase high performance liquid chromatography (RP-HPLC). A representative HPLC (Column: CAPCELL PAK C18; Detector: UV 234 nm) chromatogram and the identification of major components are presented in Figure 3. As shown in the chromatogram, dieckol at retention time 15.65 min was the most notable compound in EK-ECP. The chromatogram could be divided to relatively high (6–13 min), mid (13~20 min) and low polarity region (20~27 min) and each region could be represented by the regionally most notable peak 8,8′-bieckol, dieckol and PFF-A, respectively. These three phlorotannins were selected for monitoring the blood samples upon administration of EK-ECP during pharmacokinetic (PK) experiment. Other minor phlorotannins than the three notable ones identified were 2-O-(2,4,6-Trihydroxyphenyl)-6,6′-bieckol (7.217 min), 6,6′-bieckol (7.717 min), 7-phloroeckol (7.717 min), 2-phloroeckol (9.883 min), eckol (10.450 min), dioxinodehydroeckol (23.100 min) and fucofuroeckol A (23.650 min). Other notable peaks, such as those at 12.133, 17.483, 20.833, and 21.250 min, remain unidentified due to the technical challenges in isolating and identifying the corresponding single compounds.
The hydroxyl protons observed in the phlorotannin structures are attached to aromatic rings, resulting in distinct downfield shifts (near 9 ppm) due to the electron-withdrawing effects of the aromatic system. This contrasts with the hydroxyl groups found in aliphatic alcohols in general. […]
^1H NMR (500 MHz) was acquired on Bruker Avance III 500 MHz NMR spectrometer (Bruker Corporation, Billerica, MA, USA) using DMSO-d6 as a solvent. […] To quantify the total polyphenolic content of EK-ECP, the Folin–Ciocalteu reagent was reacted with EK-ECP dissolved in 50% aqueous ethanol, and the resulting solution was analyzed using a UV–Vis spectrophotometer (SPECTROstarNano, BMG Labtech, Ortenberg, Germany) at 725 nm. […]

Compound	relative polarity within the phlorotannin extract
Oc1cc(O)cc(Oc2c(O)cc(O)c3c2Oc2c(cc(O)c(-c4c(O)cc5c(c4O)Oc4c(Oc6cc(O)cc(O)c6)c(O)cc(O)c4O5)c2O)O3)c1 [8,8′-bieckol]	the most hydrophilic
Oc1cc(O)cc(Oc2c(O)cc(O)c3c2Oc2c(O)cc4oc5c(Oc6cc(O)cc(O)c6)c(O)cc(O)c5c4c2O3)c1 [PFF-A, phlorofucofuroeckol-A]	the most lipophilic
Oc1cc(O)cc(Oc2c(O)cc(O)c3c2Oc2c(O)cc(Oc4c(O)cc(Oc5c(O)cc(O)c6c5Oc5c(O)cc(O)cc5O6)cc4O)cc2O3)c1 [dieckol]	in between
